Experiments:
[1] = biological target: αS (Homo sapiens, UniProt P37840); details: in vitro (Perni et al. 2017); cited from earlier work
[2] = Pharmacokinetics of orally administered squalamine (ENT-01) in Stage 2; assay type: in vivo, human; details: Stage 2, oral; for Cmax: squalamine ion, mean
Experimental: Pharmakokinetics: PK data were collected on the 10 patients enrolled in Stage 1 and 10 patients enrolled in Stage 2 to determine the extent of systemic absorption. In Stage 1, PK data were obtained at each visit, pre-medication, at 1, 2, 4, 8 and 24 hours (Table 14). In Stage 2, PK was measured on days 1 and 6 of the randomization period pre-medication, at 1, 2, 4 and 8 hours (Table 15).
The mean Cmax, Tmax and T1/2 and AUC of the squalamine ion following squalamine (ENT-01) oral dosing for Stage 1 patients. The PK analyses are only approximate, as the lower limit of the validated concentration range was 10 ng/ml; most of the measured concentrations fell below that value. The mean Cmax, Tmax and T1/2 and AUC of the squalamine ion following squalamine (ENT-01) oral dosing for Stage 2 patients. The PK analyses are only approximate, as the lower limit of the validated concentration range was 0.5 ng/ml.

[3] = system: patients with PD; assay: Phase 2 trial Stage 2: circadian rhythm of wrist skin temperature (I-Button); assay type: in vivo, human
Experimental: FIGS. 20A-F show the effect of squalamine (ENT-01) on circadian rhythm. The figures depict the results of circadian non-parametric analysis of wrist skin temperature rhythm throughout each condition (baseline, treatment with highest dose of squalamine (ENT-01) and washout). The following parameters were measured: […] (FIG. 20A), inter-daily stability (IS) (FIG. 20B), relative amplitude (RA) (FIG. 20C), circadian function index (FIG. 20D), M5V (FIG. 20E), which refers to the five consecutive hours with the highest temperature or high somnolence, and L10V (FIG. 20F), which indicates the mean of the ten consecutive hours with lowest temperature or high activation. […] Student's paired t-test, *p<0.05, **p<01, ***p<0.001.Values expressed as mean±SEM (n=12 in each condition).
(6) I-Button Temperature Assessment. […] From the collected data, the mesor, amplitude, acrophase (time of peak temperature), Rayleight test (an index of interdaily stability), mean waveforms are calculated.);
Circadian rhythm of skin temperature was evaluable in 12 patients (i.e., those who had recordings that extended from baseline through washout). Circadian system functionality was evaluated by continuously monitoring wrist skin temperature using a temperature sensor (Thermochron iButton DS1921H; Maxim, Dallas, Tex.) (Sarabia et al. 2008). […]

**Q.** For CC(C)[C@@H](CC[C@@H](C)[C@H]1CC[C@H]2[C@@H]3[C@H](O)C[C@H]4C[C@@H](NCCCNCCCCN)CC[C@]4(C)[C@H]3CC[C@]12C)OS(=O)(=O)O (single isomer, unassigned; ent-01) [ENT-01], which “formation of aggregates of αS” value [1] is on record?
**A.** The value was “inhibit the formation of aggregates”.

**Q.** And the AUC0-8 hr ([2]; dose 75 mg)?
**A.** Its AUC0-8 hr is 59.0 ng·h/mL.

**Q.** And the “Tmax (Median Value)” value ([2]; dose 75 mg)?
**A.** Its value is 3.0 h.

**Q.** What about the Cmax ([2]; dose 75 mg) of the same compound?
**A.** Its Cmax is 10.0 ng/mL.

**Q.** What about the AUC0-8 hr ([2]; dose 100 mg) of the same compound?
**A.** Its AUC0-8 hr is 70.3 ng·h/mL.

**Q.** What about the “Tmax (Median Value)” value ([2]; dose 100 mg) of the same compound?
**A.** The value was 1.0 h.

**Q.** And the Cmax ([2]; dose 100 mg)?
**A.** Its Cmax is 17.7 ng/mL.

**Q.** What about the AUC0-8 hr ([2]; dose 175 mg) of the same compound?
**A.** The AUC0-8 hr was 66.8 ng·h/mL.

**Q.** What about the “Tmax (Median Value)” value ([2]; dose 175 mg) of the same compound?
**A.** The value was 2.0 h.

**Q.** What about the Cmax ([2]; dose 175 mg) of the same compound?
**A.** Its Cmax is 11.8 ng/mL.

**Q.** And the “markers of healthy circadian function (IS, RA, CFI, IV)” value ([3]; fixed dose vs baseline, 12 patients)?
**A.** The value was “improved all markers of healthy circadian function”.

**Q.** What about the “circadian parameters (IS, CFI)” value ([3]; wash-out period) of the same compound?
**A.** Its value is “improvement persisted”.

Reference: patent US11083735B2, “Methods for treating sleep disorders, sleep disturbances, and related symptoms using aminosterol compositions” (Enterin, Inc., priority 2017, dated 2021)
